pEC50, pIC50: −log10 of the molar value.
Columns and labels:
[1] = molecular target: Dual specificity mitogen-activated protein kinase kinase 1 (Homo sapiens) (UniProt Q02750); assay: Inhibition of MKK1 at 1 uM; values are per cent of control
[2] = molecular target: T1, Serine/threonine-protein kinase Nek2 (Homo sapiens) (UniProt P51955); assay: Inhibition of NEK2A at 1 uM; values are per cent of control
T1 sequence (whole entry): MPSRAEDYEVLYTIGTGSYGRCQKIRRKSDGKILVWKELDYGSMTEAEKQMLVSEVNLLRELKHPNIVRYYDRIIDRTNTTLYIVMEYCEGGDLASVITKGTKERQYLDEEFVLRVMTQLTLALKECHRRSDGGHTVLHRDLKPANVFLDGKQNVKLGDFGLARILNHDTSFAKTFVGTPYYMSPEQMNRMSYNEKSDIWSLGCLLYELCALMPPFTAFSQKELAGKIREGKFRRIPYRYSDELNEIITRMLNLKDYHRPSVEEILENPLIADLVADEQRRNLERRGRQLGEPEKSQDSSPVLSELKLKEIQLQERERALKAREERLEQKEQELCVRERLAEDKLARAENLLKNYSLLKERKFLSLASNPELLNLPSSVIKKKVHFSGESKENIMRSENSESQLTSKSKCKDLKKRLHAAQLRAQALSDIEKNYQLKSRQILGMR

[3] = molecular target: T2, TGF-beta receptor type-1 (Homo sapiens, UniProt P36897); assay: Inhibition of TGFbeta receptor
T2 sequence (P36897 whole entry): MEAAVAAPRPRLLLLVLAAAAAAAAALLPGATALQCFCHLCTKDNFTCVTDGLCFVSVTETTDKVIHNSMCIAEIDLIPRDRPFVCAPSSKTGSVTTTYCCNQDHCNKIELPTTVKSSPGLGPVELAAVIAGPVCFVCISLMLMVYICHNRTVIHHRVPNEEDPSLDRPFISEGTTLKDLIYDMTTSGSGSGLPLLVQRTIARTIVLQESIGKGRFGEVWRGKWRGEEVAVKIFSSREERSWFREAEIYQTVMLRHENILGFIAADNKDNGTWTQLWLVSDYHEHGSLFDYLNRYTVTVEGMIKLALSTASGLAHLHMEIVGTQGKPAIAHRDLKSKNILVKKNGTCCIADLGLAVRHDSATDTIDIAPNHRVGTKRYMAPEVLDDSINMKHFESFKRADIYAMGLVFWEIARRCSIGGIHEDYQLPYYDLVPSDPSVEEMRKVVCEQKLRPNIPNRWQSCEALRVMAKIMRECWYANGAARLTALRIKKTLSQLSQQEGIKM

[4] = molecular target: Cyclin-dependent kinase 2/cyclin A (Homo sapiens) (UniProt P24941+P20248+P78396); assay: Inhibition of CDK2/cyclin A at 1 uM; values are per cent of control
[5] = molecular target: T2, TGF-beta receptor type-1; assay: Inhibition of TGFbeta receptor in human HaCaT cells assessed as Smad phosphorylation by ELISA; assay type: cell-based
[6] = Inhibition of PKA at 1 uM; values are per cent of control
[7] = Inhibition of AMPK at 1 uM; values are per cent of control
[8] = molecular target: Dual specificity mitogen-activated protein kinase kinase 1 (Homo sapiens) (UniProt Q02750); assay: Inhibition of MKK1A at 1 uM; values are per cent of control
[9] = molecular target: Platelet-derived growth factor receptor alpha (Homo sapiens, UniProt P16234); assay: Inhibition of PDGFRalpha
[10] = molecular target: Dual specificity tyrosine-phosphorylation-regulated kinase 1A (Homo sapiens) (UniProt Q13627); assay: Inhibition of DYRK1A at 1 uM; values are per cent of control
[11] = molecular target: Mitogen-activated protein kinase 12 (Homo sapiens) (UniProt P53778); assay: Inhibition of p38-gamma at 1 uM; values are per cent of control
[12] = molecular target: Bone morphogenetic protein receptor type-2 (Homo sapiens, UniProt Q13873); assay: Inhibition of BMPR2
[13] = molecular target: Dual specificity mitogen-activated protein kinase kinase 2 (Homo sapiens) (UniProt P36507); assay: Inhibition of MKK2 at 1 uM; values are per cent of control
[14] = test system: HaCaT; assay: Cytotoxicity against human HaCaT cells
[15] = molecular target: Proto-oncogene tyrosine-protein kinase Src (Homo sapiens) (UniProt P12931); assay: Inhibition of Src at 2 uM
[16] = molecular target: TGF-beta receptor type-2 (Homo sapiens, UniProt P37173); assay: Inhibition of TGFbeta2 receptor
[17] = molecular target: T3, Mitogen-activated protein kinase 13 (Homo sapiens) (UniProt O15264); assay: Inhibition of p38delta at 1 uM; values are per cent of control
T3 sequence (whole entry): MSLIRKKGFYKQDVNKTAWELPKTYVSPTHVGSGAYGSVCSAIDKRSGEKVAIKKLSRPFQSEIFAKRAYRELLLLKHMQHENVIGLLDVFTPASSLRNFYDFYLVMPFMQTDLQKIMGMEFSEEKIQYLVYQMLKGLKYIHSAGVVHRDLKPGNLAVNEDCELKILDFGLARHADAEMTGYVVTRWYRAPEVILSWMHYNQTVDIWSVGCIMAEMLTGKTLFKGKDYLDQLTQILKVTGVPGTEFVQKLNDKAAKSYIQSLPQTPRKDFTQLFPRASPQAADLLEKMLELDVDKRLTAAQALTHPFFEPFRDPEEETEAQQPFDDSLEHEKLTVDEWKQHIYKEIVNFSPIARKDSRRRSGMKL

[18] = molecular target: Mitogen-activated protein kinase 11 (Homo sapiens) (UniProt Q15759); assay: Inhibition of p38beta2 at 1 uM; values are per cent of control
Mitogen-activated protein kinase 11 (Homo sapiens), sequence (Q15759 whole entry): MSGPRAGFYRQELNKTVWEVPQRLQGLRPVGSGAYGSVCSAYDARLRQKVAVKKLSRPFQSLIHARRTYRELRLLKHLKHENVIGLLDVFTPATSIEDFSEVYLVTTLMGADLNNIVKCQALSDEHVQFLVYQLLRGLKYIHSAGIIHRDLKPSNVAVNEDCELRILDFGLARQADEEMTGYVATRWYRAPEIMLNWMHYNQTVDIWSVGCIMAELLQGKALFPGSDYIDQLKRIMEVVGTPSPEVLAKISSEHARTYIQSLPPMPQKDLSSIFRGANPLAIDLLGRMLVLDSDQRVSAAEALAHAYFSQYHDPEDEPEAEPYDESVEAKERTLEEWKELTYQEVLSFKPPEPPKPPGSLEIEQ

Proto-oncogene tyrosine-protein kinase Src (Homo sapiens), sequence (P12931 2-536 limits assumed): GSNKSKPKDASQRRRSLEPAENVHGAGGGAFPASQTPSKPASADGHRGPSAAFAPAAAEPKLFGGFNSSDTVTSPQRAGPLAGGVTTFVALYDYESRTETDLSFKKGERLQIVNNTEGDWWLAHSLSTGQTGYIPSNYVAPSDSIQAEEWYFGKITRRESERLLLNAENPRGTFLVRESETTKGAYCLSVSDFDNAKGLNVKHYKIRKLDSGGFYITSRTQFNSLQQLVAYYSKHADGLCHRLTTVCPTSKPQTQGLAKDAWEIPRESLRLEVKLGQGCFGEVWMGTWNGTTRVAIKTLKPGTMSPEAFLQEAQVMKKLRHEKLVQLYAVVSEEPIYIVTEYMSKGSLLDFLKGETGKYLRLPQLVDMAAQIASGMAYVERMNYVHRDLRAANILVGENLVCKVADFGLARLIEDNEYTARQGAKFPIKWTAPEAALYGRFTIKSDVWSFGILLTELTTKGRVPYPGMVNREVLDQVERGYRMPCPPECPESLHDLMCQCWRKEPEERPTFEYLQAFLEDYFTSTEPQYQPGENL
Platelet-derived growth factor receptor alpha, sequence (P16234 whole entry): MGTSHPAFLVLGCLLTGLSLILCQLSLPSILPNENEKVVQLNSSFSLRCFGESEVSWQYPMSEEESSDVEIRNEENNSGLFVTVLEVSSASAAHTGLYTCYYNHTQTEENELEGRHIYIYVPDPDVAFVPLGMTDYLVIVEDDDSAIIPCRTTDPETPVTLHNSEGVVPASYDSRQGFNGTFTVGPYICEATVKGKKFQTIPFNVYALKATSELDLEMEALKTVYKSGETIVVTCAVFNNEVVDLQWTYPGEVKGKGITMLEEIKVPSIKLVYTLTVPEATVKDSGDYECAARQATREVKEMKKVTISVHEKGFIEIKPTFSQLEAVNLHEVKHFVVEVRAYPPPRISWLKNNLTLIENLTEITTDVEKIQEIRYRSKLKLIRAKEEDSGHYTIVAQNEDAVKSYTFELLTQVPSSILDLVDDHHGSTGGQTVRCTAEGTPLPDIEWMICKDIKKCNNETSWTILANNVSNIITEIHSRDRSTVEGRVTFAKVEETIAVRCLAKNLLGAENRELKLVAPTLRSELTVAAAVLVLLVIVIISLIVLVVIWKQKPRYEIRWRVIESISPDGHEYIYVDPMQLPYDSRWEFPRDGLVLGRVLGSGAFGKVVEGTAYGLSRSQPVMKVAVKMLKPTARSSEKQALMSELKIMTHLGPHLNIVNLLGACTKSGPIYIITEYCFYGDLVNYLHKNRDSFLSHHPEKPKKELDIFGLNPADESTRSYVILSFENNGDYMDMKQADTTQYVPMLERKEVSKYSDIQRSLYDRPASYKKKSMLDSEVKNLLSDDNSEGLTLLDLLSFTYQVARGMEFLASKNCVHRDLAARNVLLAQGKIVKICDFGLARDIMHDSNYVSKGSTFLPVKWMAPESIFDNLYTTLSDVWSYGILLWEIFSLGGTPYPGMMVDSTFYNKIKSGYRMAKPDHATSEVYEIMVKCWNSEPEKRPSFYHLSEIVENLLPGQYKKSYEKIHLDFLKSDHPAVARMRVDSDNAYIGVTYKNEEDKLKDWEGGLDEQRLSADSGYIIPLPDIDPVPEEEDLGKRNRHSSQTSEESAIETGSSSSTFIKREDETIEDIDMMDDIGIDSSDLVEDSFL
Dual specificity mitogen-activated protein kinase kinase 2 (Homo sapiens), sequence (P36507 whole entry): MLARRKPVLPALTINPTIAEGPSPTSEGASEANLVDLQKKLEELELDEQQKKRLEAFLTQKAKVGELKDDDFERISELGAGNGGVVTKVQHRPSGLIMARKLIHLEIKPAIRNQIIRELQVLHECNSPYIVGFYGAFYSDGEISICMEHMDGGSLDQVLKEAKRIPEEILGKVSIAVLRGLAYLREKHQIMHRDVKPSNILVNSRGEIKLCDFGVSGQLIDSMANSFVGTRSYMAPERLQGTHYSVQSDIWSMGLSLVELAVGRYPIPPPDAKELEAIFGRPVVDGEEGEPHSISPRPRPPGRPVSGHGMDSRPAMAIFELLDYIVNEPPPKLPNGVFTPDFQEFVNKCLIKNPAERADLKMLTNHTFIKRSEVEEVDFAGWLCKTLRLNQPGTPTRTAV
Dual specificity mitogen-activated protein kinase kinase 1 (Homo sapiens), sequence (Q02750 whole entry): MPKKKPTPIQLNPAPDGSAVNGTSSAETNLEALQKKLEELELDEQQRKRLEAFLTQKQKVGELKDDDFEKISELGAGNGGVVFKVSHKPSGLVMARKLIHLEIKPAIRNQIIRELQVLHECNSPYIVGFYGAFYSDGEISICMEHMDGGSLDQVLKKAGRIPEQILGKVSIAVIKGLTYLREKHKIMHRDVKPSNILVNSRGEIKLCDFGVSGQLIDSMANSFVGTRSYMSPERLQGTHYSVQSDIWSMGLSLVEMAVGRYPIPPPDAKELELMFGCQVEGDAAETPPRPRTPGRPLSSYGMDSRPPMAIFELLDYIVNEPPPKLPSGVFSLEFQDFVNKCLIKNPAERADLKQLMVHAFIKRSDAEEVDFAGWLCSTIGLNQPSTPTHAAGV
Mitogen-activated protein kinase 12 (Homo sapiens), sequence (P53778 whole entry): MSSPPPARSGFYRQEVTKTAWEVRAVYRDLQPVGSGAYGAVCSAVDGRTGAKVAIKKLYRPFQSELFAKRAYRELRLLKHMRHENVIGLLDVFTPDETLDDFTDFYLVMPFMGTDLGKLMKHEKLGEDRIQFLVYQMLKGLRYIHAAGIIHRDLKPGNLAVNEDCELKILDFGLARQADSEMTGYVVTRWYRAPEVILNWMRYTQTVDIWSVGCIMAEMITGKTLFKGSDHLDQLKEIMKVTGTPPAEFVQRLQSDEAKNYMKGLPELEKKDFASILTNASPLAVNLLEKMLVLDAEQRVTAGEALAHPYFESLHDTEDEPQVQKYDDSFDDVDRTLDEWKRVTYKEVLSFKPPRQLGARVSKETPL
TGF-beta receptor type-2, sequence (P37173 whole entry): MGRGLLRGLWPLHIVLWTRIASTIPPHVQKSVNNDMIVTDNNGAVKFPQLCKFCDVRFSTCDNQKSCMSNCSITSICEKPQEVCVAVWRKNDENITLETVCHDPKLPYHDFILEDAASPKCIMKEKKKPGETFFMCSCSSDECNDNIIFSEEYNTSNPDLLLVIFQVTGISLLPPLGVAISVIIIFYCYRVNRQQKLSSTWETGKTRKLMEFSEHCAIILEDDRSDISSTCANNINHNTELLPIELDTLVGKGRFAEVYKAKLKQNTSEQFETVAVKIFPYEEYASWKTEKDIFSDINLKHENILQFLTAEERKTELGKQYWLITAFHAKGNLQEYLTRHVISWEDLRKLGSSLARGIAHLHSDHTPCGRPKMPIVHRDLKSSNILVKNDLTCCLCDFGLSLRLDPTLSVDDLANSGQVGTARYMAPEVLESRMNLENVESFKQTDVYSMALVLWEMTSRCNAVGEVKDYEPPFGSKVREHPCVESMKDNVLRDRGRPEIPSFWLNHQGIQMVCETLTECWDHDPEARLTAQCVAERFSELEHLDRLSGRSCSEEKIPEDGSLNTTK
Bone morphogenetic protein receptor type-2, sequence (Q13873 whole entry): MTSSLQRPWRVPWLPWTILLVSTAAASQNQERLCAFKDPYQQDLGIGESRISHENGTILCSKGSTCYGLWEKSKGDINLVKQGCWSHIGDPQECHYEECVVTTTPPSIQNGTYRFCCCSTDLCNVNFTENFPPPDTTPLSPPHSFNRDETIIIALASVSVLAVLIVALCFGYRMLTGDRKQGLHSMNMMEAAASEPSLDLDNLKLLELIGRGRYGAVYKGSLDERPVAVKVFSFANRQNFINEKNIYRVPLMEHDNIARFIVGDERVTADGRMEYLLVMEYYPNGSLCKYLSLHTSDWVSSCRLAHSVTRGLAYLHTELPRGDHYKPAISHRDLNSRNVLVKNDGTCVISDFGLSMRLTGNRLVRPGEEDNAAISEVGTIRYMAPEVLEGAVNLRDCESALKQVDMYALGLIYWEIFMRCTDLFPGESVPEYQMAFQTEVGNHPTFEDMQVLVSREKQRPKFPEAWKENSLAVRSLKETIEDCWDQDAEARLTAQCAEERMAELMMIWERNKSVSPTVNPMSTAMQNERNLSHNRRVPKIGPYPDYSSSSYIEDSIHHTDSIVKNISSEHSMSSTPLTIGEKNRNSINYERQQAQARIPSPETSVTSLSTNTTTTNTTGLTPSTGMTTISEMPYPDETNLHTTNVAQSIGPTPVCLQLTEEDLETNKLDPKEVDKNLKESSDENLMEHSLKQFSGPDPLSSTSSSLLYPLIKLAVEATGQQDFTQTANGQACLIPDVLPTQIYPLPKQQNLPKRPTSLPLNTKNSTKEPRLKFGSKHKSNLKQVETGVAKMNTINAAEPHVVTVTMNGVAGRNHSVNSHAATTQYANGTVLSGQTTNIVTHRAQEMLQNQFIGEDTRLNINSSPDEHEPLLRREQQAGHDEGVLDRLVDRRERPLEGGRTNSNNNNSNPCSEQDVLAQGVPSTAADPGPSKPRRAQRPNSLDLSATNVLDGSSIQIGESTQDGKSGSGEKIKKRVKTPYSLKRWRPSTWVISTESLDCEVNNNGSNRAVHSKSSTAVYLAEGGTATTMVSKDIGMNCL

Structure (SMILES)	residual activity [1] [%]	residual activity [2] [%]	pIC50 [3]	residual activity [4] [%]	pEC50 [5]	residual activity [6] [%]	residual activity [7] [%]	residual activity [8] [%]	pIC50 [9]	residual activity [10] [%]	residual activity [11] [%]	pIC50 [12]	residual activity [13] [%]	residual activity [15] [%]	pIC50 [16]	residual activity [17] [%]	residual activity [18] [%]	pIC50 [14]
CCN(C)C(=O)c1ccc2c(c1)NC(=O)/C2=C(\Nc1ccc(CN2CCCCC2)cc1)c1ccccc1	48	96		110	6.98	96	80	47	6.05	88	93	< 4.30	102	86	4.72	108	98	< 6.00
CCNCc1ccc(N/C(=C2\C(=O)Nc3cc(C(=O)N(C)CC)ccc32)c2ccccc2)cc1	61	72	7.49	87	6.80	96	81	50	5.96	86			97	61		86		< 6.00
O=C1Nc2ccccc2/C1=C(/Nc1ccc(CN2CCCCC2)cc1)c1ccccc1	4	39	5.46	38		12	4	0		18			75					
CN(C)C(=O)c1ccc2c(c1)/C(=C(/Nc1ccc(CN3CCCCC3)cc1)c1ccccc1)C(=O)N2	12	81	6.73	39	6.70	69	2	4		45	91		94			99	100	< 6.00

Second part, led by results:

residual activity [1] [%]	residual activity [2] [%]	pIC50 [3]	residual activity [4] [%]	pEC50 [5]	residual activity [6] [%]	residual activity [7] [%]	residual activity [8] [%]	pIC50 [9]	residual activity [10] [%]	residual activity [11] [%]	pIC50 [12]	residual activity [13] [%]	residual activity [15] [%]	pIC50 [16]	residual activity [17] [%]	residual activity [18] [%]	Structure (SMILES)	pIC50 [14]
53	70	9.00	100	6.97	75	74	80	7.13	96								CCNC(=O)c1ccc2c(c1)NC(=O)/C2=C(\Nc1ccc(N(CCN(C)C)S(C)(=O)=O)cc1)c1ccccc1	
59	98	7.72	103	6.73	90	85	93	7.00	105				86				CCNC(=O)c1ccc2c(c1)NC(=O)/C2=C(\Nc1ccc(CN(C)C)cc1)c1ccccc1	< 6.00

From ChEMBL document CHEMBL1268952, “Design, synthesis, and evaluation of indolinones as inhibitors of the transforming growth factor β receptor I (TGFβRI)” (J Med Chem, 2010)
